A short description of data set [1]: Thermogravimetric analysis (TGA) thermal stability under N2. The format is physicochemical. Particulars: 25 to 900° C.
Method: Characterization. […] Thermogravimetric analysis (TGA) thermograms were prepared in the range of 20-900° C. at a temperature rate of 10° C. min^−1 under N2 flow, using a TA Q100 instrument.
A short description of data set [2]: Stability of NRH and NR aqueous solutions over 60 days of storage, remaining concentration by HPLC. The following applies: aqueous solution, atmosphere not stated.
Another data set has as its system NAD^+. Particulars: NR taken as a supplement; cited from earlier work.

Take `NC(=O)c1ccc[n+]([C@@H]2O[C@H](CO)[C@@H](O)[C@H]2O)c1` [NR, nicotinamide riboside]: in data set [1] (10° C. min^−1, N2 atmosphere), the “temperature of greatest weight loss (TGA)” value is around 910 °C. The degradation result is listed as “no detectable degradation” in data set [2] (4° C., 60 days); 48% in data set [2] (25° C., 30 days); 68% in data set [2] (25° C., 60 days). The “boost of the level of NAD^+” value in the data set on NAD^+ is 60%.
For `NC(=O)c1ccc[n+]([C@@H]2O[C@H](CO)[C@@H](O)[C@H]2O)c1.[Cl-]` [NRCl, nicotinamide riboside chloride], the “weight loss at the temperature of greatest weight loss (TGA)” value in data set [1] (N2 atmosphere) is recorded as “around 65%”.
